Calls of active or inactive are those of the source.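 How the source made its calls: active means in confirmatory dose-response testing, peak deubiquitinase inhibition of 30% or more; inactive means the rest.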
Target: Ubiquitin carboxyl-terminal hydrolase 28 (Homo sapiens) (UniProt Q96RU2)
Assay: Ubiquitin-specific peptidase 28 DUB inhibitors, biochemical concentration-dependence assay, validation of primary screening hits (AID 1645866)
Conditions: purified USP28, ubiquitin-rhodamine fluorescence, 30 min

Chain of Ubiquitin carboxyl-terminal hydrolase 28 (Homo sapiens) (Q96RU2 whole entry, looked up): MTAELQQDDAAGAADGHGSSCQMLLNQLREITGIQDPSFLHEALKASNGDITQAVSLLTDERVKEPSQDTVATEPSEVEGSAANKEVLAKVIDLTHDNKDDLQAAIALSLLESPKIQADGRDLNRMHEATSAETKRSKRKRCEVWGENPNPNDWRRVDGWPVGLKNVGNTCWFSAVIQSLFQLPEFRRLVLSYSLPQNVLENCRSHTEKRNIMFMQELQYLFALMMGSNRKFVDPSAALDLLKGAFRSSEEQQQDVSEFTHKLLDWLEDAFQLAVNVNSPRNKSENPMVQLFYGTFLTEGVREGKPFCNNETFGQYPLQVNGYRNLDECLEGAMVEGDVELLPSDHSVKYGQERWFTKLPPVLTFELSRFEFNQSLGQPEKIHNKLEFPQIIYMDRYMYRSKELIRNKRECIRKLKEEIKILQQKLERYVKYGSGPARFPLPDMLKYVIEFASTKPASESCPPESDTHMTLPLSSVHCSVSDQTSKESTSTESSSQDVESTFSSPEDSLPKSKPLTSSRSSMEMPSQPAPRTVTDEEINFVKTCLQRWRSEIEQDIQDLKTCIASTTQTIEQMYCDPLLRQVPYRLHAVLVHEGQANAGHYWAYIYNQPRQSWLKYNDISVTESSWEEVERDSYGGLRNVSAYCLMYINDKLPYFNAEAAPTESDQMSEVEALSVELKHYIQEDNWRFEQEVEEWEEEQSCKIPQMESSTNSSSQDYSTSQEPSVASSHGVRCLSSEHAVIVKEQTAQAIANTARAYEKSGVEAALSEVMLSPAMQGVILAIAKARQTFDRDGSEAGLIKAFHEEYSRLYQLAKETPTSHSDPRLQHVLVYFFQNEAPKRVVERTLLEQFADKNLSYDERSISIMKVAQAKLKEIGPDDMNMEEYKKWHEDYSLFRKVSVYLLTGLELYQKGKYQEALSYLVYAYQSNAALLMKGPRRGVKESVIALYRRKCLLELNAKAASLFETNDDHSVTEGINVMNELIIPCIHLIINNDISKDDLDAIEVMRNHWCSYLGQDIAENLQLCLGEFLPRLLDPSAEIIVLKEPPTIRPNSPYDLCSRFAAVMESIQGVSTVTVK

SMILES | IC50
CCn1c(=O)c2ccccc2n(Cc2nc(-c3ccccc3OC)no2)c1=O | > 50 µM (inactive)
COCCn1c(=O)[nH]c2cc(C(=O)NCCNc3ccc([N+](=O)[O-])cc3C#N)ccc2c1=O | 2.06 µM
CC(C)OC(=O)c1cc2c(ccn2-c2ccc(F)cc2)n1CC(=O)NC1CCCCC1 | 27.5 µM
CCc1nnc(NC(=O)c2nnn(-c3ccccc3Cl)c2C)s1 | 28.5 µM
COc1cc(C(=O)Nc2ccc(-c3csc(C)n3)cc2)cc(OC)c1OC | 4.04 µM
COc1cccc2cc(C(=O)Nc3nc(-c4ccncc4)cs3)oc12 | 0.647 µM
Cc1ccc(C)c(-c2cc3c(=O)n(Cc4noc(CN5CCCCC5)n4)ccn3n2)c1 | 4.49 µM
Cc1ccc(C)c(-n2c(C)cc(/C=C3/C(=N)N4C(c5ccc(F)cc5)=CSC4=NC3=O)c2C)c1 | > 50 µM (inactive)
O=C(Cn1c(=O)n(Cc2ccccc2)c(=O)c2ncccc21)NCc1ccccc1Cl | 25.9 µM
COc1ccc(-c2cc3nc([C@H](C)NC(=O)Cc4ccccc4C)nn3cn2)cc1 | 2.61 µM
O=C(CSc1nnc2n1CCCCC2)Nc1ccc2[nH]c(=O)[nH]c2c1 | 34.8 µM
CC(C)NC(=O)CN1C(=O)CC(C)Sc2ccc(S(=O)(=O)N3CCCCC3)cc21 (stereo not given) | 41.6 µM
CCN(CC)c1nc(F)c2c(c1F)S(=O)(=O)CCN2Cc1ccccc1 | > 50 µM (inactive)
CCc1ccc(C2c3c(oc4ccccc4c3=O)C(=O)N2c2nncs2)cc1 (stereo not given) | > 50 µM (inactive)
Cc1nc(-c2ccccc2F)sc1C(=O)Nc1cccnc1 | 26.8 µM
Cc1c(C(=O)c2ccccc2)c2ccccn2c1CCc1ccccn1 | > 50 µM (inactive)
COc1cccc(-n2ccc(=O)c(-c3nc(-c4ccccc4Cl)no3)n2)c1 | 27.4 µM
O=C(O)C1CCN(Cc2c(-c3ccco3)nc3ccc(Cl)cn23)CC1 | > 50 µM (inactive)
Cc1ccc(OCC(=O)Nc2cccc(-c3nc4ncccc4o3)c2)c(C)c1 | 38.5 µM
c1ccc2c(c1)CCc1c-2nc2ccccc2c1N1CCOCC1 | > 50 µM (inactive)
Cc1ccc(CNC(=O)CCCn2c(=O)c3sccc3n(CC(=O)OCc3ccccc3)c2=O)cc1 | 2.15 µM

SMILES | IC50
COc1ccc(-c2nc(SCC(=O)Nc3ccc(Cl)cc3F)n[nH]2)cc1 | > 50 µM (inactive)
Cc1ccccc1Cn1ccc2ccn(Cc3cccnc3)c2c1=O | 10.4 µM
Cc1ccc(CNC(=O)Cn2c(=O)n(-c3ccccc3)c3ncccc32)cc1 | > 50 µM (inactive)
Cc1c(C)n(-c2ccccc2)c2ncn(CC(=O)NC(C)c3ccccc3)c(=O)c12 (stereo not given) | 16.7 µM
CC(C)NS(=O)(=O)c1cccc2c(NC(=O)C(Cc3ccccc3)NC(=O)c3ccccc3)cccc12 (stereo not given) | > 50 µM (inactive)
CCn1cc(-c2cc(C(=O)Nc3cnn(Cc4cccc(F)c4)c3)c3ccccc3n2)cn1 | 42.1 µM
CN(C)c1ccc(C2CC(c3c(O)n(C)c(=O)[nH]c3=O)=Nc3ccccc3S2)cc1 (stereo not given) | 2.12 µM
CCOc1ccc(-c2cc3nc(C4CCN(C(=O)OC(C)(C)C)CC4)c(C(=O)Nc4cc(F)ccc4F)cn3n2)cc1 | > 50 µM (inactive)
COc1ccc(C2C(C(=O)Nc3ccccc3OC)=C(C)Nc3nnnn32)cc1Br (stereo not given) | 23.2 µM
O=C(Nc1ccccc1)c1cn(-c2cc(N3CCCC3)ncn2)cn1 | > 50 µM (inactive)
COc1ccccc1NC(=O)c1nn(-c2cccc(F)c2)c(OC)cc1=O | 25.1 µM
COCCNC(=O)c1ccnn1-c1ccc2ccc(-c3cccnc3)cn12 | > 50 µM (inactive)
Cc1nnc(NCc2cccnc2)c2c1nnn2Cc1ccccc1Cl | 26.4 µM
O=C(Nc1ncc2c(n1)-c1ccccc1CC2)C1CC1 | 17.6 µM
CC(OC(=O)c1ccc2c(c1)OCCO2)C(=O)NCC1CCCCC1 (stereo not given) | 26.1 µM
Cc1cccc(C(=O)NCc2nc3ccccc3n2Cc2ccccc2C)c1 | > 50 µM (inactive)
COc1ccc2c(c1)c(N1CCCC1=O)c(C(=O)NCc1cccc(OC)c1OC)n2C | > 50 µM (inactive)
CC1CCN(c2nnc(-c3nc(C4CC4)no3)c3ccccc23)CC1 | > 50 µM (inactive)
O=C(CSc1nc2cc(S(=O)(=O)Nc3ccccc3Cl)ccc2o1)Nc1ccc(N2CCOCC2)cc1 | 34.5 µM
CCOC(=O)c1cn(C2CC2)c2cc(N3CCNCC3)c([N+](=O)[O-])cc2c1=O | > 50 µM (inactive)
COc1cccc(-c2cc(C(=O)N3CCN(c4ccc(N5CCOCC5)nn4)CC3)[nH]n2)c1 | 3.83 µM

The next lines start with the values.

IC50 | SMILES
> 50 µM (inactive) | O=S(=O)(O)c1cc2cc3ccccc3cc2[nH]1
22.3 µM | O=S(=O)(Nc1ccc(O)cc1)c1ccc2oc3ccc(S(=O)(=O)Nc4ccc(O)cc4)cc3c2c1
> 50 µM (inactive) | COc1cccc(CNC(=O)c2ccc3c(c2)NC(=O)C2CCCN32)c1OC (stereo not given)
13 µM | COc1ccccc1CNC(=O)CCCCn1c(=O)c2ccccc2n(Cc2ccccc2C#N)c1=O
0.531 µM | O=C(Nc1ccc(Oc2cccc3cccnc23)cc1)c1cccs1
14.6 µM | CCCCC/C=C/C=C/C(=O)OC1C(O)CC(c2ccc3c(c2O)C(=O)c2c(O)cc4cc(C)cc(O)c4c2C3=O)OC1C (stereo not given)
12 µM | CCOc1ccc(-c2nc(C#N)c(N3CCN(C(=O)c4ccccc4C)CC3)o2)cc1
6.16 µM | COc1ccccc1-n1nnc(C(=O)Nc2ccc(Oc3ccccc3)cc2)c1C
36.8 µM | Cn1cc(-c2cnc(-c3cccc(F)c3)nc2)cc1C(=O)NCc1cccnc1
2.43 µM | Cn1c(COc2ccccc2)nnc1SCC(=O)Nc1ccc(N2CCOCC2)cc1
21.6 µM | O=C(Cn1cncc(C(=O)NC2CCCC2)c1=O)Nc1cccc(F)c1
49.1 µM | O=C(Nc1ccccc1Cl)N(Cc1cc2cc3c(cc2[nH]c1=O)OCCO3)C1CCCCC1
16.2 µM | Cc1nnc(C(=O)Nc2ccc(C(=O)NCc3ccccc3C)cc2)s1
17.5 µM | COc1ccc(NC(=O)CSc2nnc(Cc3cccc4ccccc34)n2C)cc1
19.9 µM | CCOC(=O)CSc1nnc(-c2cnn(-c3ccccc3)c2N)o1
> 50 µM (inactive) | O=C(COc1nc2ccccc2nc1N1CCOCC1)NC(c1ccccc1)c1ccccc1
> 50 µM (inactive) | CC1CCc2c(sc3ncnc(NC4CCN(CC(N)=O)CC4)c23)C1 (stereo not given)
37.5 µM | O=C(Nc1cc(F)c2nc(N3CCOCC3)ccc2c1)c1ccc(Br)o1
2.31 µM | CCOC(=O)c1ccc(NC(=O)Cn2c(=O)n(CC(=O)NCc3ccco3)c(=O)c3ccccc32)cc1
19.4 µM | O=C(CCn1c(=O)c2ccccc2n(Cc2cc(=O)n3ccccc3n2)c1=O)NCCc1ccc(Cl)cc1
41.7 µM | Cc1cc(C(=O)N2CCOCC2)c(C)n1-c1ccc(O)cc1
> 50 µM (inactive) | CCN1CCCC1CN(Cc1cc2cc(OC)ccc2[nH]c1=O)C(=O)NCc1ccccc1 (stereo not given)
> 50 µM (inactive) | CC(=O)NCc1nc(-c2ccc3c(c2)nc(C)c(=O)n3C2CCCC2)no1
11.1 µM | COC(=O)COc1ccc(/C=N/NC(=O)c2ccc(CN3CCc4ccccc4C3)cc2)cc1
30.9 µM | COc1ccccc1CNC(=O)c1ccc(CSc2nc3ccncc3n2Cc2ccccc2)cc1
2.87 µM | Cc1ccc(CNC(=O)CCCn2c(=O)c3sccc3n(CC(=O)Nc3cc(Cl)ccc3C)c2=O)cc1
40.4 µM | COc1ccc(NC(=O)CN2CCN(c3ccc(C(C)=O)cc3)CC2)cc1S(=O)(=O)N1CCCCC1
> 50 µM (inactive) | Cc1ncncc1C(=O)N1CCCC(C)(c2ncc(Cc3cccc(F)c3)o2)C1 (stereo not given)

Source: PubChem BioAssay AID1645866 (Buhrlage Lab, Dana-Farber Cancer Institute and Novartis …, 2021)
